Measurements taken from PMC4346271 (Bioorganic & Medicinal Chemistry, 2015).
Values belong to the compound of their own block, whether it stands above or below them.

Columns and labels:
panel of GPCRs = test: GPCR off-target screen, whole panel; assay type: binding; settings: 1 μM; selection of 24 GPCRs (Table S3)
hCB2R = hCB2R (Homo sapiens, UniProt P34972); test: hCB2R cAMP assay; assay type: cell-based; settings: for agonist activity at the CB2R (in words): CHO cell cAMP assay
panel of kinases = test: Kinase off-target screen, whole panel; assay type: binding; settings: 10 μM; 97 kinases (Table S4)
Mouse liver microsome = assay type: in vitro ADME; settings: mouse liver microsomes, 37 °C, with NADPH
Solubility observations = assay type: physicochemical; settings: in the vehicle (DMSO) or under the assay conditions

Sequence of hCB2R (P34972 whole entry): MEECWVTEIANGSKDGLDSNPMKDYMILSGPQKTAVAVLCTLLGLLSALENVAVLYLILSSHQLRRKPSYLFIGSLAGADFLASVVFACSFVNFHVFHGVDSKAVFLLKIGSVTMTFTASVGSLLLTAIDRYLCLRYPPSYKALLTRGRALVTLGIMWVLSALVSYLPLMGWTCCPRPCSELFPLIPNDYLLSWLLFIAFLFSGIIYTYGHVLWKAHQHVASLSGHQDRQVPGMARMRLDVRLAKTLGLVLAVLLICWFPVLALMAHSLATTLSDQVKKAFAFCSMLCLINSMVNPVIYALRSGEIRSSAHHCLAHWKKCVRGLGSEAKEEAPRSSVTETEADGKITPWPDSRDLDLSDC

Compound: Fc1ccccc1CSc1nnc2c(n1)[nH]c1ccccc12 [Compound 14, 3-((2′-Fluorobenzyl)thio)-5H-[1,2,4]triazino[5,6-b]indole]
agonist activity at the CB2R (in words) (hCB2R): no activity up to the highest concentrations tested

Compound: N#Cc1ccccc1CSc1nnc2c3ccccc3n(C(=O)c3ccccc3)c2n1 [Compound 72]
MLM stability t1/2 (Mouse liver microsome): no parent compound could be detected at the earliest time point

Compound: CN(C)c1ccc(C(=O)n2c3ccccc3c3nnc(SCc4ccccc4C#N)nc32)cc1 [Compound 78]
solubility (in words) (Solubility observations): extremely poorly soluble under the assay conditions

Continued, values first:

binding at any of the GPCRs tested (panel of GPCRs): no significant binding
EC50 (hCB2R): 120 nM
binding with any of the kinases tested (panel of kinases): no significant binding
Compound: N#Cc1ccccc1CSc1nnc2c(n1)[nH]c1ccccc12 [Compound 7, 3-((2′-Cyanobenzyl)thio)-5H-[1,2,4]triazino[5,6-b]indole]

agonist activity at the CB2R (in words) (hCB2R): no detectable agonist activity
Compound: Sc1nnc2c(n1)[nH]c1ccccc12 [Compound 9, 5H-[1,2,4]Triazino[5,6-b]indole-3-thiol]

agonist activity at the CB2R (in words) (hCB2R): no detectable activity
Compound: CC(=O)n1c2ccccc2c2nnc(SCc3ccccc3C#N)nc21 [Compound 66, 2′(((5-Acetyl-5H-[1,2,4]triazino[5,6-b]indol-3-yl)thio)methyl)benzonitrile]
